One may read the EC50 as the concentration giving half of the maximal effect. The term EC90 denotes the concentration at which the effect reaches the 90% level.

A value given as a limit tells only on which side of the number the result lay.

Eleven molecules from patent US11814366B2, “Antiviral compounds and use thereof” (UNIVERSITA DEGLI STUDI DI SIENA, priority 2018, dated 2023) can be followed below.

One series relates to HIV Strain NL4-3. As to the kind of experiment: HIV-1 inhibition assay, strain NL4-3, TZM-bl cells, CPRG readout. Type of series: cell-based. How it is done: The human TZM-bl indicator cell line (obtained from the NIH AIDS reagents program, cat. Nr 8129, www.aidsreagent.org) was maintained at 37° C. and 5% CO2 in Dulbecco's modified Eagle's medium (DMEM) medium containing 10% fetal bovine serum, 50 μg/ml penicillin, and 50 μg/ml streptomycin. The HIV-1 laboratory strains NL (AD8) (NIH AIDS reagents program, cat. Nr, 11346) and NL4.3 (NIH AIDS reagents program, cat. Nr. 114) were titrated as previously reported by Tiberi et al (2014). Briefly, serial 5-fold dilutions of each virus were made in quadruplicate wells in 96-well culture plates, in a total volume of 100 μl of growth medium (DMEM), for a total of 8 dilution steps. Freshly trypsinized cells (20,000 cells in 100 μl of growth medium containing 75 μg/mL DEAE-dextran) were added to each well, and the plates were incubated at 37° C. in a humidified 5% CO2-95% air environment. After 48 h of incubation, the medium was removed and viral infection was quantified using a β-galactosidase (CPRG) assay (Roche). Twenty thousand TZM-bl cells/well were seeded in 96-well plates in complete DMEM supplemented with 30 μg/ml DEAE-dextran (Sigma-Aldrich). Three hundred times the 50% tissue culture infective dose (TCID50)/ml of each strain was pretreated for 1 h at 37° C. with six serial dilutions (10000 nM, 2000 nM, 400 nM, 80 nM, 16 nM, 3.2 nM) and then added to the cells. Vehicle (0.1% dimethyl sulfoxide [DMSO])-treated cells served as a negative control. […] After 2 days, viral infection was quantified using a CPRG assay (Roche cat nr 11379119103). The inhibitory curves were fitted by nonlinear regression, allowing for the calculation of the 50% effective concentration (EC50) using the Prism software. To evaluate the cell toxicity of the compounds, the metabolic XTT [2,3-bis-(2-methoxy-4-nitro-5-sulfophenyl)-2H-tetrazolium-5-carboxanilide] test (Sigma-Aldrich) was performed according to the manufacturer's instructions.

Another series in a line: Cytotoxicity, XTT test. The note with it: human.
The next series concerns DENV-2. As to the kind of experiment: DENV plaque reduction assay on Huh-7 cells. The note with it: for SI selectivity index: DENV-2, CC50 divided by EC50; for EC50: Dengue virus, DENV2, Huh-7, DENV-2 infected cells. Type of series: cell-based, Dengue virus. How it is done:
The effect of compounds on DENV infection was evaluated by plaque reduction assay. Huh-7 cells were pre-plated 24 h in advance in 24-well plates at a density of 10^5 cells. Concentrations of compounds ranging from 50 μM to 0.0001 μM in DMSO were mixed with DENV-2 (MOI 0.01 pfu/cell) and incubated for 1 hour at 37° C. The mixtures were subsequently added to the cells, which were then incubated at 37° C. for 2 h. The virus inoculum was then removed and the cells washed and overlaid with a medium containing 1.2% methylcellulose (Sigma). After further incubation at 37° C. for 72 h cells were fixed and stained with 0.1% crystal violet in 20% ethanol and viral plaques counted. The effective concentration producing 50% reduction in plaque formation (EC50) were determined using Prism software by comparing drug-treated wells with wells treated with medium and DMSO. The selectivity index (SI) was calculated by dividing the CC50 by the EC50 value.
For orientation: Plaque reduction counts the foci of infection that form in a cell layer.

Series [1] is described as follows: Cell viability (MTS) assay, Huh-7 cells. Type of series: cell-based. The note with it: human, conditions of the DENV-2 assay (Table 6). On the procedure:
Cell viability was measured using the MITS [3-(4,5-dimethylthiazol-2-yl)-5-(3 carboxy methoxy phenyl)-2-(4-sulfophenyl)-2H-tetrazolium] assay. Cell cultures were seeded in 96-well plates and were incubated with different concentrations of compounds of the invention in triplicate under the same experimental conditions described for the antiviral assays. Cell viability was determined using the CellTiter 96 Proliferation Assay Kit (Promega, Madison, WI, USA) according to the manufacturer's instructions. Absorbances were measured using a Microplate Reader (Model 680, BIORAD) at 490 nm. The effect on cell viability at different concentrations of the compound was expressed as a percentage, by comparing absorbances of treated cells with those of cells incubated with culture medium and equal volumes of vehicle. The 50% cytotoxic concentrations (CC50) and 95% confidence intervals (CIs) were determined using Prism software (Graph-Pad Software, San Diego, CA).

The subject of a further series is HSV-2. As to the kind of experiment: HSV-2 plaque reduction assay on Vero cells. As to conditions: for SI selectivity index: HSV-2, CC50 divided by EC50; for EC90 / EC50: Human alphaherpesvirus 2, Vero, HSV-2 infected cells; for EC90: 90% effective concentration; for EC50: compound mixed with virus 1 hour at 37° C. Type of series: cell-based, Herpes 2 virus (HSV-2).

Series [2] is described as follows: in vitro. As to conditions: African green monkey.
The next series concerns ZIKAV. The series can be described thus: ZIKA virus plaque reduction assay on Vero cells. Type of series: cell-based, Zika virus (PRVABC59). As to conditions: for SI selectivity index: ZIKAV, CC50 divided by EC50; for EC50 / EC90: Zika virus, Vero, ZIKAV infected cells.
The test system of another series is H1N1. The series can be described thus: H1N1 inhibition assay on MDCK cells. Type of series: cell-based, Influenza virus H1N1. As to conditions: for SI selectivity index: H1N1, CC50 divided by EC50; for EC50 / EC90: Influenza A virus, MDCK, H1N1 infected cells; for EC50: read-out: EC50; for EC90: read-out: EC90. How it is done:
MDCK cells were pre-plated in 96-well plates. The following day, concentrations of compounds ranging from 50 μM to 0.0001 μM in DMSO were mixed with H1N1 (MOI 0.05 pfu/cell) and incubated for 1 hour at 37° C. The mixtures were subsequently added to the cells for 1 h at 37° C., after a washout, cells were overlaid with MEM for 16 h at 37° C. Cells were then fixed and subjected to specific immunostaining using a Flu A monoclonal antibody (Merck 5001) in order to visualize infected cells. EC50 were calculated by comparing numbers of infected cells in treated and untreated wells. The effective concentration producing 50% reduction in plaque formation (EC50) was determined using Prism software. The selectivity index (SI) was calculated by dividing the CC50 by the EC50 value.

Series [3] can be described thus: in vitro. As to conditions: dog.
A further series concerns HIV Strain AD8. As to the kind of experiment: HIV-1 inhibition assay, strain NL(AD8), TZM-bl cells, CPRG readout. Type of series: cell-based.
The mark [4] stands for this setting: Human immunodeficiency virus 1, NL43, virus pretreated 1 h at 37° C. with compound.
Where [5] appears, read: CC50, conditions of the HSV-2 assay (Table 2).
[6] abbreviates: CC50, conditions of the ZIKAV assay (Table 3).
Setting [7] is: virus pretreated 1 h at 37° C. with compound.

With `Cc1nnc(C(=O)NC(C)(C)c2nc(C(=O)NCc3ccc(F)cc3)c(O)c(=O)n2C)o1` [Ral, raltegravir, reference compound], in the series on HIV Strain NL4-3 (setting [4]), the EC50 is 0.021 µM. Moreover, the CC50 in “Cytotoxicity, XTT test” is above 20 µM.
Turning to `O=C1NC(=S)N(Cc2ccccn2)C(=O)/C1=C\c1ccc(-c2ccc(-c3nnn[nH]3)cc2)[nH]1` [Compound 15p, (Z)-5-((5-(4-(1H-tetrazol-5-yl)phenyl)-1H-pyrrol-2-yl)methylene)-1-(pyridin-2-ylmethyl)-2-thioxodihydropyrimidine-4,6(1H,5H)-dione], in the series with DENV-2, the SI selectivity index was 7.3 and a half-maximal effect (EC50) was put at 12.2 µM. Besides, the CC50 in series [1] is 89 µM.
Regarding `O=C1NC(=S)NC(=O)C1=Cc1ccc(-c2ccc(C(=O)O)c(O)c2)[nH]1` [Compound 17b, 4-(5-((4,6-dioxo-2-thioxotetrahydropyrimidin-5(2H)-ylidene)methyl)-1H-pyrrol-2-yl)-2-hydroxybenzoic Acid], the 50% effective concentration (EC50) in the series with HIV Strain NL4-3 (setting [4]) is 0.16 µM. Moreover, in the series on HSV-2, the SI selectivity index was above 429.8, the concentration for an effect of 90% (EC90) was 7.47 µM and the concentration giving a half-maximal response (EC50) is 0.698 µM. For the same molecule, the CC50 in the series “in vitro [2]” (setting [5]) is above 300 µM. The CC50 in the series “Cytotoxicity, XTT test” is above 20 µM.
Consider `O=C1NC(=S)N(CCc2ccccc2)C(=O)/C1=C/c1ccc(-c2ccc(-c3nnn[nH]3)cc2)[nH]1` [Compound 15c, (Z)-5-((5-(4-(1H-tetrazol-5-yl)phenyl)-1H-pyrrol-2-yl)methylene)-dihydro-3-henethyl-2-thioxopyrimidine-4,6(1H,5H)-dione], for which the SI selectivity index was above 1435 in the series with HSV-2, above 12000 in the series on ZIKAV, above 379 with H1N1 and 20.6 in the series on DENV-2. Moreover, the results for the EC90 in the series on HSV-2, with ZIKAV and in the series with H1N1 were 0.618 µM, 0.365 µM and 1.76 µM, respectively. Besides, the EC50 in the series with HSV-2 came out at 0.209 µM; in the series on ZIKAV, 0.0258 µM; with H1N1, 0.793 µM; in the series with DENV-2, 3.4 µM. In addition, the CC50 in [1] is 70 µM; in the series “in vitro [2]” (setting [5]), above 300 µM; in the series “in vitro [2]” (setting [6]), above 300 µM; in “in vitro [3]”, above 300 µM.
In the series on DENV-2, `O=C1NC(=S)N(CCc2ccc(O)cc2)C(=O)/C1=C\c1ccc(-c2ccc(C(=O)O)c(O)c2)[nH]1` [Compound 15f, (Z)-2-hydroxy-4-(5-((1-(4-hydroxyphenethyl)-4,6-dioxo-2-thioxotetrahydropyrimidin-5(2H)-ylidene)methyl)-1H-pyrrol-2-yl)benzoic Acid] gave an SI selectivity index of 3.6 and a concentration for a half-maximal effect (EC50) of 7.8 µM. In addition, the CC50 in series [1] amounted to 28 µM.
With `O=C1NC(=S)NC(=O)C1=Cc1ccc(-c2cc(C(F)(F)F)ccc2Cl)[nH]1` [Compound 17a, 5-((5-(2-chloro-5-(trifluoromethyl)phenyl)-1H-pyrrol-2-yl)methylene)-2-thioxodihydropyrimidine-4,6(1H,5H)-dione], the CC50 in “Cytotoxicity, XTT test” was above 20 µM.
`N#Cc1ccc(-c2ccc(/C=C3\C(=O)NC(=S)N(CCc4ccccc4)C3=O)[nH]2)cc1` [Compound 15d, 4-(5-((Z)-(tetrahydro-4,6-dioxo-3-phenethyl-2-thioxopyrimidin-5(6H)-lidene)methyl)-1H-pyrrol-2-yl)benzonitrile]: the SI selectivity index is reported as above 8.7 in the series with HSV-2, above 272.7 with ZIKAV and above 12 with H1N1. The results for the concentration for an effect of 90% (EC90) in the series with HSV-2, in the series on ZIKAV and with H1N1 were 88.2 µM, 26.6 µM and 372 µM, respectively. For the same molecule, the EC50 in the series with HSV-2 was found to be 34.5 µM; in the series with ZIKAV, 1.11 µM; with H1N1, 25 µM. Besides, the CC50 in the series “in vitro [2]” (setting [5]), in the series “in vitro [2]” (setting [6]) and in the series “in vitro [3]” was above 300 µM each time.
In the case of `O=C(O)c1ccc(-c2ccc(CC3C(=O)NC(=S)N(CCc4ccccc4)C3=O)[nH]2)cc1O` (stereo not drawn) [Compound 18, 4-(5-((hexahydro-4,6-dioxo-1-phenethyl-2-thioxopyrimidin-5-yl)methyl)-1H-pyrrol-2-yl)-2-hydroxybenzoic Acid], the SI selectivity index with HSV-2 is reported as above 417.2; in the series on ZIKAV, above 849.8; in the series on H1N1 it was above 238. In addition, the results for the 90% effect concentration (EC90) in the series with HSV-2, in the series with ZIKAV and in the series on H1N1 were 0.128 µM, 0.308 µM and 14.9 µM, respectively. For the same molecule, the EC50 in the series with HSV-2 was 0.712 µM; in the series on ZIKAV, 0.0353 µM; with H1N1, 1.26 µM. For the same molecule, the CC50 in the series “in vitro [2]” (setting [5]), in the series “in vitro [2]” (setting [6]) and in “in vitro [3]” was above 300 µM throughout.
Regarding maraviroc [reference compound], the results for the EC50 with HIV Strain AD8 (setting [7]) and with HIV Strain NL4-3 (setting [7]) were 0.0367 µM and above 20 µM, respectively.
For the molecule `O=C1NC(=S)N(Cc2ccccc2)C(=O)/C1=C\c1ccc(-c2ccc(C(=O)O)c(O)c2)[nH]1` [Compound 15a, (Z)-4-(5-((1-benzyl-4,6-dioxo-2-thioxotetrahydropyrimidin-5(2H)-ylidene)methyl)-1H-pyrrol-2-yl)-2-hydroxybenzoic Acid], in the series with HIV Strain NL4-3 (setting [4]), the concentration giving a half-maximal response (EC50) was determined as 0.217 µM. The molecule also came in with a CC50 in the series “Cytotoxicity, XTT test” above 20 µM.
In the case of `O=C(O)c1ccc(-c2ccc(/C=C3\SC(=S)N(Cc4ccc(Cl)cc4)C3=O)[nH]2)cc1O` [Compound 7b, (Z)-4-(5-((3-(4-chlorobenzyl)-4-oxo-2-thioxothiazolidin-5-ylidene)methyl)-1H-pyrrol-2-yl)-2-hydroxybenzoic Acid], the 50% effective concentration (EC50) in the series with HIV Strain AD8 (Human immunodeficiency virus 1, virus pretreated 1 h at 37° C. with compound) was found to be 0.532 µM. The CC50 in “Cytotoxicity, XTT test” (TZM-bl cells) is above 20 µM.
